In US11666583B2, “Methods of treating cortical dementia associated wandering” (WOOLSEY PHARMACEUTICALS, INC., priority 2020, dated 2023):
Structures can show the parent of a compound that is named as a salt.

Columns and labels:
[1] = tested on: patients with Alzheimer's Dementia (AD) and cortical vascular dementia (VaD); assay: Clinical trial of oral fasudil on frequency of wandering (Example 1); format: in vivo, human
Source text: Twenty patients, 10 with AD and 10 with VaD (confirmed by […]) who are characterized wanderers, are enrolled into the study and observed for 2 weeks to confirm wandering behavior. […] The double-blind phase is followed by another treatment period of 6 weeks with the opposite treatment assignment (placebo or test drug taken with food).
• a. Walks distinctly more than average as others of same age and ability AND/OR • b. Elopement behavior≥3× per week in the opinion of the investigator Criteria for Entering First Double-Blind Treatment Period: Wanders: • a. Walks less than half the mean distance measured in observation period AND/OR • b. Elopement behavior<1× per week in the opinion of the investigator AND/OR • c. Wandering has improved in the opinion of the Investigator. 4. For entering observation period and for entering open label treatment period: • a. MMSE between 10 and 25.
Wandering is measured in term of time in motion and distance traveled (measures of persistent wandering), attempted and successful boundary transgressions (measures of elopement) and patterns like pacing a lapping (indicative of persistent wandering and/or agitation or anxiety) using an electronic tracking device. A typical tracking device would use a combination of accelerometry with positioning, using technology like RFID or Bluetooth in an indoor environment and GPS outdoors. Other wayfinding, orientation and memory-associated wandering incidents are observed and recorded manually.
The Mini Mental State Exam (MMSE), the Woolsey Wandering Questionnaire and the Revised Algase Wandering Scale are administered at baseline and at the end of each treatment period. Any change in the use of antipsychotics or anxiolytics that could affect movement during the study is strongly discouraged.

[2] = tested on: triple transgenic mouse model (APP Swedish, MAPT P301L, and PSEN1 M146V); conditions: 10 mg/kg/day intraperitoneally; cited from earlier work
[3] = tested on: patients with wandering due to VaD; conditions: cited from earlier work
triple transgenic mice = conditions: 30 mg/kg and 100 mg/kg in water, 10 or 12 months of age; cited from earlier work
streptozotocin rats = conditions: 5 and 10 mg/kg/day intraperitoneally; cited from earlier work
APP/PS1 transgenic mice = conditions: 5 and 10 mg/kg/day intraperitoneally; cited from earlier work
[4] = molecular target: p38 mitogen-activated protein kinase (Homo sapiens, UniProt Q16539); conditions: cited from earlier work
[5] = 1-hydroxy (M3) metabolite; cited from earlier work

p38 mitogen-activated protein kinase, sequence (Q16539 whole entry): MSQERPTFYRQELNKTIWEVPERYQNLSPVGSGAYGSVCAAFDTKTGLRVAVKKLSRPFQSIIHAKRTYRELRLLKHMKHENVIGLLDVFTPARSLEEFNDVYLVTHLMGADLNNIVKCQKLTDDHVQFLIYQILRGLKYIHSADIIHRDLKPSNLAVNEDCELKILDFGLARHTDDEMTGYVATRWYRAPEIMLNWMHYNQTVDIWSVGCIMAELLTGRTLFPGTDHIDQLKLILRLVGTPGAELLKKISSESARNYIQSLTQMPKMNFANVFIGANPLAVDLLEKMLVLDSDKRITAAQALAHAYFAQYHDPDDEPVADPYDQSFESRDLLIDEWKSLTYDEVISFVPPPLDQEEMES

O=S(=O)(c1cccc2cnccc12)N1CCCNCC1 [fasudil, Hexahydro-1-(5-isoquinolinesulfonyl)-1H-1,4-diazepine monohydrochloride hemihydrate]
measures of caregiver burden ([1]; on drug, 90 mg/day): significant effect | reduction in wandering, at least one item of the RAWS and/or the WWQ ([1]; oral 90 mg/day (30 mg TID), 6 weeks, AD and cortical VaD wanderers): significant reduction | mean increase in MMSE score ([1]; persistent wanderers, 90 mg/day): greater than 3 points | reduction of activity levels ([1]; persistent wanderers, on drug as compared to placebo, 90 mg/day): about 50% | wayfinding errors and other problematic behaviors ([1]; sporadic wanderers, while on drug): significant reduction | ß-amyloid plaques in vivo [2]: reduce ß-amyloid plaques | wandering symptoms ([3]; patient with Binswanger-type cerebral infarction, within weeks of beginning treatment): disappeared and remained absent for the duration of treatment | wayfinding symptoms ([3]; patient with sequelae of cerebral bleeding and multiple lacunar infarctions (lacunar dementia)): disappeared quickly and remained absent for the duration of treatment | spatial memory (triple transgenic mice): did not observe improvements | latency distance and quadrant time in the Morris water maze (streptozotocin rats): improved | latency distance and quadrant time in the Morris water maze (APP/PS1 transgenic mice): improved

O=c1ncn2nc(Sc3ccc(F)cc3F)ccc2c1-c1c(Cl)cccc1Cl [Neflamapimod]
primary endpoint of improving episodic memory ([4]; Phase 2): failed | tau in the cerebrospinal fluid ([4]; Phase 2): reducing tau | Aβ deposition ([4]; humans): no effect

O=S(=O)(c1cccc2c(O)nccc12)N1CCCNCC1 [M3]
half-life [5]: about 8 hours
